pIC50: −log10 of the molar value. Like-named read-outs stand apart in the source and are kept apart here.
What was measured:
[1] = tested on: MX-1 (human breast carcinoma) cells; test: in vitro growth inhibition, cytotoxicity assay (Promega CellTiter Blue Cell Viability Assay); format: cell-based; conditions: read-out: IC50, μM MX-1
Method: After 24 hrs., cells were exposed to various concentrations of compound in DMSO and cultured for another 72 hrs. 100 ul of media were removed and 20 ul of Promega CellTiter Blue reagent were added to each well and shaken to mix. […] The fluorescence produced is proportional to the number of viable cells. After plotting fluorescence produced against drug concentration, the IC50 was calculated as the […] of the resulting non-linear regression.

[2] = cited from earlier work
HSV-1 = conditions: cited from earlier work
cellular growth = conditions: read-out: concentration that inhibited cellular growth 50% in comparison with untreated controls; cited from earlier work
[3] = MX-1 cells, 72 hrs exposure, CellTiter Blue

Compound | IC50 [1, 3] | further results
18-N-(2-Furo)amide-21-hydroxylgeldanamycin [Compound 10] | 7.2 µM | 
18-N-(2-Trifluoro)benzamide-21-hydroxylgeldanamycin [Compound 4] | 0.68 µM | 
18-N-(3,4-Dichloro)benzamide-21-hydroxylgeldanamycin [Compound 9] | 0.8 µM | 
18-N-(3,4-Dichloro)benzamide-21-methoxylgeldanamycin [Compound 70] | 12.4 µM | 
18-N-(4-Cyano)benzamide-21-hydroxylgeldanamycin [Compound 7] | 0.13 µM | 
18-N-(4-Fluoro)benzamide-21-hydroxylgeldanamycin [Compound 8] | 2 µM | 
18-N-(4-Methoxy)benzamide-21-hydroxylgeldanamycin [Compound 5] | 0.29 µM | 
18-N-(4-Nitro)benzamide-21-hydroxylgeldanamycin [Compound 3] | 0.42 µM | 
18-N-(4-Phenyl)benzamide-21-hydroxylgeldanamycin [Compound 6] | 0.081 µM | 
18-N-Benzamide-21-hydroxylgeldanamycin [Compound 1] | 1.9 µM | 
18-N-Benzylcarbamate-21-hydroxylgeldanamycin [Compound 16] | 0.088 µM | 
18-N-Benzylurea-21-hydroxylgeldanamycin [Compound 49] | 2.4 µM | 
18-N-Lauramide-21-hydroxylgeldanamycin [Compound 2] | 1.3 µM | 
18-N-iso-Nicotinamide-21-hydroxylgeldanamycin [Compound 11] | 0.1 µM | 
C=CC(=O)Nc1cc2c(O)c(c1OC)CC(C)CC(OC)C(O)C(C)C=C(C)C(OC(N)=O)C(OC)C=CC=C(C)C(=O)N2 (centres unmarked) [Compound 12, 18-N-Acrylamide-21-hydroxylgeldanamycin] | 15.3 µM | 
C=CCNC1=C2C[C@@H](C)C[C@H](OC)[C@H](O)[C@@H](C)/C=C(\C)[C@H](OC(N)=O)[C@@H](OC)/C=C\C=C(/C)C(=O)NC(=CC1=O)C2=O [Compound 17-AAG, 17-allylaminogeldanamycin, reference compound] |  | IC50 ([1]; Homo sapiens, MX1, 72 h): 1.7 µM; water solubility [2]: limited aqueous solubility
COc1c(NS(=O)(=O)c2ccc(C(F)(F)F)cc2)cc2c(O)c1CC(C)CC(OC)C(O)C(C)C=C(C)C(OC(N)=O)C(OC)C=CC=C(C)C(=O)N2 (centres unmarked) [Compound 29, 18-N-(4-trifluoromethylbenzene)sulfamide-21-hydroxylgeldanamycin] | 0.078 µM | 
COC1=C2C[C@@H](C)C[C@H](OC)[C@H](O)[C@@H](C)/C=C(\C)[C@H](OC(N)=O)[C@@H](OC)/C=C\C=C(/C)C(=O)NC(=CC1=O)C2=O [GA, Geldanamycin] |  | IC50 ([1]; Homo sapiens, MX1, MX-1 cells, 72 hrs exposure, CellTiter Blue): 0.5 µM; water solubility [2]: poor water solubility; therapeutic index (HSV-1; cellular growth vs HSV-1 replication): over 3700; pIC50 (HSV-1; in vitro, read-out: 50% inhibitory concentration, HSV-1 replication in vitro): 7.03; pIC50 (cellular growth): 3.46
